Assay results reported in US12077503B2, “Substituted cyclic amides and their use as herbicides” (FMC CORPORATION, priority 2015, dated 2024).

Tests used:
Format in all cases: in vivo
[1] = test system: barnyardgrass (Echinochloa crus-galli); assay: Test G Post-Emergence Protocol; conditions: Echinochloa crus-galli, post-emergence, 312 h
Summary of the method: (§1)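 Post-emergence herbicidal damage, scored visually 0–100 at 13 days. Application at 15.625, 62.5 or 250 g/ha onto 8-day-old plants grown under glasshouse control.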

[2] = test system: ivy-leaved morning glory (Ipomoea hederacea); assay: Test G Post-Emergence Protocol; conditions: Ipomoea, post-emergence, 312 h
Summary of the method: as §1

[3] = test system: giant foxtail (Setaria faberi); assay: Test G Post-Emergence Protocol; conditions: Setaria faberi, post-emergence, 312 h
Summary of the method: as §1

corn (Zea mays) [4] = assay: Test G Post-Emergence Protocol; conditions: Zea mays, post-emergence, 312 h
Summary of the method: as §1

[5] = test system: redroot pigweed (Amaranthus retroflexus); assay: Test G Post-Emergence Protocol; conditions: Amaranthus retroflexus, post-emergence, 312 h
Summary of the method: as §1

[6] = test system: velvetleaf (Abutilon theophrasti); assay: Test G Post-Emergence Protocol; conditions: Abutilon theophrasti, post-emergence, 312 h
Summary of the method: as §1

[7] = test system: barnyardgrass (Echinochloa crus-galli); assay: Test G Pre-Emergence Protocol; conditions: Echinochloa crus-galli, pre-emergence, 312 h, evaluated after 13 days
Summary of the method: (§2)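 Glasshouse pre-emergence test: soil-sown seeds, sprayed after 1 d at 15.625, 62.5 or 250 g/ha. Conditions 24/16° C day/night, 14 h light, 65% humidity, watering twice daily. Rating 13 d post-spray (100 = total damage).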

[8] = test system: ivy-leaved morning glory (Ipomoea hederacea); assay: Test G Pre-Emergence Protocol; conditions: Ipomoea, pre-emergence, 312 h, evaluated after 13 days
Summary of the method: as §2

[9] = test system: giant foxtail (Setaria faberi); assay: Test G Pre-Emergence Protocol; conditions: Setaria faberi, pre-emergence, 312 h, evaluated after 13 days
Summary of the method: as §2

corn (Zea mays) [10] = assay: Test G Pre-Emergence Protocol; conditions: Zea mays, pre-emergence, 312 h, evaluated after 13 days
Summary of the method: as §2

[11] = test system: redroot pigweed (Amaranthus retroflexus); assay: Test G Pre-Emergence Protocol; conditions: Amaranthus retroflexus, pre-emergence, 312 h, evaluated after 13 days
Summary of the method: as §2

[12] = test system: velvetleaf (Abutilon theophrasti); assay: Test G Pre-Emergence Protocol; conditions: Abutilon theophrasti, pre-emergence, 312 h, evaluated after 13 days
Summary of the method: as §2

CN1C[C@@H](c2ccc(C(F)(F)F)cc2)[C@H](C(=O)Nc2cc(F)nc(F)c2)C1=O (racemic) [Compound 1515]
0%: pest or weed control at 15.625 g/ha ([1]; 15.625 g ai/ha, evaluated after 13 days (100=total damage to plant; 0=no damage to plant), read-out: Barnyardgrass damage rating) | pest or weed control at 62.5 g/ha ([1]; 62.5 g ai/ha, evaluated after 13 days, read-out: Barnyardgrass damage rating (100=total damage to plant; 0=no damage to plant)) | pest or weed control at 250 g/ha ([1]; 250 g ai/ha, evaluated after 13 days, read-out: damage to plant, Barnyardgrass (100=total damage to plant; 0=no damage to plant)) | pest or weed control at 15.625 g/ha ([2]; 15.625 g ai/ha, evaluated after 13 days (100=total damage to plant; 0=no damage to plant), read-out: Morningglory, Ivy-leaved damage rating) | pest or weed control at 62.5 g/ha ([2]; 62.5 g ai/ha, evaluated after 13 days, read-out: Morningglory, Ivy-leaved damage rating (100=total damage to plant; 0=no damage to plant)) | pest or weed control at 250 g/ha ([2]; 250 g ai/ha, evaluated after 13 days, read-out: damage to plant, Morningglory, Ivy-leaved (100=total damage to plant; 0=no damage to plant)) | pest or weed control at 15.625 g/ha ([3]; 15.625 g ai/ha, evaluated after 13 days (100=total damage to plant; 0=no damage to plant), read-out: Foxtail, Giant damage rating) | pest or weed control at 62.5 g/ha ([3]; 62.5 g ai/ha, evaluated after 13 days, read-out: Foxtail, Giant damage rating (100=total damage to plant; 0=no damage to plant)) | pest or weed control at 250 g/ha ([3]; 250 g ai/ha, evaluated after 13 days, read-out: damage to plant, Foxtail, Giant (100=total damage to plant; 0=no damage to plant)) | plant injury at 15.625 g/ha (corn (Zea mays) [4]; 15.625 g ai/ha, evaluated after 13 days (100=total damage to plant; 0=no damage to plant), read-out: Corn damage rating) | plant injury at 62.5 g/ha (corn (Zea mays) [4]; 62.5 g ai/ha, evaluated after 13 days, read-out: Corn damage rating (100=total damage to plant; 0=no damage to plant)) | plant injury at 250 g/ha (corn (Zea mays) [4]; 250 g ai/ha, evaluated after 13 days, read-out: damage to plant, Corn (100=total damage to plant; 0=no damage to plant)) | pest or weed control at 15.625 g/ha ([5]; 15.625 g ai/ha, evaluated after 13 days (100=total damage to plant; 0=no damage to plant), read-out: Pigweed, Redroot damage rating) | pest or weed control at 62.5 g/ha ([5]; 62.5 g ai/ha, evaluated after 13 days, read-out: Pigweed, Redroot damage rating (100=total damage to plant; 0=no damage to plant)) | pest or weed control at 250 g/ha ([5]; 250 g ai/ha, evaluated after 13 days, read-out: damage to plant, Pigweed, Redroot (100=total damage to plant; 0=no damage to plant)) | pest or weed control at 15.625 g/ha ([6]; 15.625 g ai/ha, evaluated after 13 days (100=total damage to plant; 0=no damage to plant), read-out: Velvetleaf damage rating) | pest or weed control at 62.5 g/ha ([6]; 62.5 g ai/ha, evaluated after 13 days, read-out: Velvetleaf damage rating (100=total damage to plant; 0=no damage to plant)) | pest or weed control at 250 g/ha ([6]; 250 g ai/ha, evaluated after 13 days, read-out: damage to plant, Velvetleaf (100=total damage to plant; 0=no damage to plant)) | pest or weed control at 15.625 g/ha ([7]; 15.625 g ai/ha, read-out: Barnyard grass damage rating (100=total damage to plant; 0=no damage to plant)) | pest or weed control at 62.5 g/ha ([7]; 62.5 g ai/ha, 100=total damage to plant, 0=no damage to plant, read-out: plant damage rating, Barnyardgrass) | pest or weed control at 250 g/ha ([7]; 250 g ai/ha, read-out: Barnyardgrass damage rating (100=total damage to plant; 0=no damage to plant)) | pest or weed control at 15.625 g/ha ([8]; 15.625 g ai/ha, read-out: Morning-glory, Ivy-leaved damage rating (100=total damage to plant; 0=no damage to plant)) | pest or weed control at 62.5 g/ha ([8]; 62.5 g ai/ha, 100=total damage to plant, 0=no damage to plant, read-out: plant damage rating, Morningglory, Ivy-leaved) | pest or weed control at 250 g/ha ([8]; 250 g ai/ha, read-out: Morningglory, Ivy-leaved damage rating (100=total damage to plant; 0=no damage to plant)) | pest or weed control at 15.625 g/ha ([9]; 15.625 g ai/ha, read-out: Foxtail, Giant damage rating (100=total damage to plant; 0=no damage to plant)) | pest or weed control at 62.5 g/ha ([9]; 62.5 g ai/ha, 100=total damage to plant, 0=no damage to plant, read-out: plant damage rating, Foxtail, Giant) | pest or weed control at 250 g/ha ([9]; 250 g ai/ha, read-out: Foxtail, Giant damage rating (100=total damage to plant; 0=no damage to plant)) | plant injury at 15.625 g/ha (corn (Zea mays) [10]; 15.625 g ai/ha, read-out: Corn damage rating (100=total damage to plant; 0=no damage to plant)) | plant injury at 62.5 g/ha (corn (Zea mays) [10]; 62.5 g ai/ha, 100=total damage to plant, 0=no damage to plant, read-out: plant damage rating, Corn) | plant injury at 250 g/ha (corn (Zea mays) [10]; 250 g ai/ha, read-out: Corn damage rating (100=total damage to plant; 0=no damage to plant)) | pest or weed control at 15.625 g/ha ([11]; 15.625 g ai/ha, read-out: Pigweed, Redroot damage rating (100=total damage to plant; 0=no damage to plant)) | pest or weed control at 62.5 g/ha ([11]; 62.5 g ai/ha, 100=total damage to plant, 0=no damage to plant, read-out: plant damage rating, Pigweed, Redroot) | pest or weed control at 250 g/ha ([11]; 250 g ai/ha, read-out: Pigweed, Redroot damage rating (100=total damage to plant; 0=no damage to plant)) | pest or weed control at 15.625 g/ha ([12]; 15.625 g ai/ha, read-out: Velvetleaf damage rating (100=total damage to plant; 0=no damage to plant)) | pest or weed control at 62.5 g/ha ([12]; 62.5 g ai/ha, 100=total damage to plant, 0=no damage to plant, read-out: plant damage rating, Velvetleaf) | pest or weed control at 250 g/ha ([12]; 250 g ai/ha, read-out: Velvetleaf damage rating (100=total damage to plant; 0=no damage to plant))
